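Briefly, cells in 96-well plates were exposed to five compound concentrations for 48 h, and endpoints were estimated by linear interpolation. At the GI50, growth is halved. TGI: total growth inhibition.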
What was measured:
Assay in all cases: NCI tumour cell line growth inhibition, 48 h
SF-295 CNS = test system: SF-295 CNS
UO-31 renal = test system: UO-31 renal
HS 578T breast = test system: HS 578T breast
M14 melanoma = test system: M14 melanoma
HT29 colon = test system: HT29 colon
PC-3 prostate = test system: PC-3 prostate
SF-268 CNS = test system: SF-268 CNS
NCI-H460 lung = test system: NCI-H460 lung
SW-620 colon = test system: SW-620 colon
HCT-116 colon = test system: HCT-116 colon
T-47D breast = test system: T-47D breast
DU-145 prostate = test system: DU-145 prostate
HOP-92 NSCLC = test system: HOP-92 NSCLC
SN12C renal = test system: SN12C renal
MDA-MB-231 breast = test system: MDA-MB-231 breast
OVCAR-8 ovarian = test system: OVCAR-8 ovarian
NCI/ADR-RES ovarian = test system: NCI/ADR-RES ovarian
A549 NSCLC = test system: A549 NSCLC
RXF 393 renal = test system: RXF 393 renal
BT-549 breast = test system: BT-549 breast
NCI-H226 lung = test system: NCI-H226 lung
NCI-H23 lung = test system: NCI-H23 lung
OVCAR-4 ovarian = test system: OVCAR-4 ovarian
HL-60(TB) leukemia = test system: HL-60(TB) leukemia
U251 CNS = test system: U251 CNS
SF-539 CNS = test system: SF-539 CNS
CCRF-CEM leukemia = test system: CCRF-CEM leukemia
786-0 renal = test system: 786-0 renal
OVCAR-5 ovarian = test system: OVCAR-5 ovarian
MCF7 breast = test system: MCF7 breast
SK-MEL-2 melanoma = test system: SK-MEL-2 melanoma
KM12 colon = test system: KM12 colon
NCI-H522 lung = test system: NCI-H522 lung
HOP-62 NSCLC = test system: HOP-62 NSCLC
EKVX NSCLC = test system: EKVX NSCLC
SNB-75 CNS = test system: SNB-75 CNS
MDA-MB-468 breast = test system: MDA-MB-468 breast
LOX IMVI melanoma = test system: LOX IMVI melanoma
CAKI-1 renal = test system: CAKI-1 renal
ACHN renal = test system: ACHN renal
TK-10 renal = test system: TK-10 renal
A498 renal = test system: A498 renal
HCT-15 colon = test system: HCT-15 colon
SR leukemia = test system: SR leukemia
IGROV1 ovarian = test system: IGROV1 ovarian
SK-OV-3 ovarian = test system: SK-OV-3 ovarian
UACC-62 melanoma = test system: UACC-62 melanoma
RPMI-8226 leukemia = test system: RPMI-8226 leukemia
COLO 205 colon = test system: COLO 205 colon
MALME-3M melanoma = test system: MALME-3M melanoma
SK-MEL-5 melanoma = test system: SK-MEL-5 melanoma
OVCAR-3 ovarian = test system: OVCAR-3 ovarian
SK-MEL-28 melanoma = test system: SK-MEL-28 melanoma
UACC-257 melanoma = test system: UACC-257 melanoma
HCC-2998 colon = test system: HCC-2998 colon
MDA-MB-435 = test system: MDA-MB-435
SNB-19 CNS = test system: SNB-19 CNS
K-562 leukemia = test system: K-562 leukemia
MOLT-4 leukemia = test system: MOLT-4 leukemia

For `CN(C)CCOc1ccc(C(=O)C2[C@H](c3ccc(Cl)cc3)[C@@H](c3ccccc3)NC23C(=O)Nc2ccc(Cl)cc23)cc1` (stereo partly drawn), the GI50 (SF-295 CNS) was 16.3 µM, the TGI (SF-295 CNS) was 30.5 µM and the GI50 (UO-31 renal) was 12.8 µM. The TGI (UO-31 renal) was 25.5 µM, the GI50 (HS 578T breast) was 12.5 µM and the TGI (HS 578T breast) was 34.2 µM. The GI50 (M14 melanoma) was 16 µM, the TGI (M14 melanoma) was 29.8 µM and the GI50 (HT29 colon) was 14.4 µM. The TGI (HT29 colon) was 28.1 µM, the GI50 (PC-3 prostate) was 15.5 µM and the TGI (PC-3 prostate) was 31.7 µM. It also gave a GI50 (SF-268 CNS) of 15 µM, a TGI (SF-268 CNS) of 33.5 µM and a GI50 (NCI-H460 lung) of 13 µM. It also gave a TGI (NCI-H460 lung) of 26.3 µM, a GI50 (SW-620 colon) of 12.3 µM and a TGI (SW-620 colon) of 25.3 µM. It also gave a GI50 (HCT-116 colon) of 12.8 µM, a TGI (HCT-116 colon) of 26 µM and a GI50 (T-47D breast) of 14.6 µM. It also gave a TGI (T-47D breast) of 30 µM, a GI50 (DU-145 prostate) of 15.9 µM and a TGI (DU-145 prostate) of 30.2 µM. For the same compound, the GI50 (HOP-92 NSCLC) was 8.92 µM, the TGI (HOP-92 NSCLC) was 22.2 µM and the GI50 (SN12C renal) was 13.5 µM. For the same compound, the TGI (SN12C renal) was 26.7 µM, the GI50 (MDA-MB-231 breast) was 15.1 µM and the TGI (MDA-MB-231 breast) was 28.7 µM. It also gave a GI50 (OVCAR-8 ovarian) of 16.3 µM, a TGI (OVCAR-8 ovarian) of 31.5 µM and a GI50 (NCI/ADR-RES ovarian) of 16.6 µM. The TGI (NCI/ADR-RES ovarian) was 31.4 µM, the GI50 (A549 NSCLC) was 14.3 µM and the TGI (A549 NSCLC) was 28.9 µM. The GI50 (RXF 393 renal) was 10.8 µM, the TGI (RXF 393 renal) was 23.6 µM and the GI50 (BT-549 breast) was 14.4 µM. For the same compound, the TGI (BT-549 breast) was 27.7 µM, the GI50 (NCI-H226 lung) was 15.3 µM and the TGI (NCI-H226 lung) was 33.1 µM. The GI50 (NCI-H23 lung) was 16.4 µM, the TGI (NCI-H23 lung) was 31 µM and the GI50 (OVCAR-4 ovarian) was 14.4 µM. It also gave a TGI (OVCAR-4 ovarian) of 29 µM, a GI50 (HL-60(TB) leukemia) of 11 µM and a TGI (HL-60(TB) leukemia) of 28.1 µM. It also gave a GI50 (U251 CNS) of 15.3 µM, a TGI (U251 CNS) of 29.3 µM and a GI50 (SF-539 CNS) of 14.7 µM. For the same compound, the TGI (SF-539 CNS) was 27.8 µM, the GI50 (CCRF-CEM leukemia) was 16.8 µM and the TGI (CCRF-CEM leukemia) was 34.8 µM. The GI50 (786-0 renal) was 15 µM, the TGI (786-0 renal) was 29.2 µM and the GI50 (OVCAR-5 ovarian) was 14.6 µM. The TGI (OVCAR-5 ovarian) was 27.8 µM, the GI50 (MCF7 breast) was 5.71 µM and the TGI (MCF7 breast) was 18.8 µM. It also gave a GI50 (SK-MEL-2 melanoma) of 15.9 µM, a TGI (SK-MEL-2 melanoma) of 30 µM and a GI50 (KM12 colon) of 13.6 µM. For the same compound, the TGI (KM12 colon) was 29 µM, the GI50 (NCI-H522 lung) was 14.8 µM and the TGI (NCI-H522 lung) was 29.1 µM. It also gave a GI50 (HOP-62 NSCLC) of 12.7 µM, a TGI (HOP-62 NSCLC) of 26 µM and a GI50 (EKVX NSCLC) of 14.3 µM. For the same compound, the TGI (EKVX NSCLC) was 28.1 µM, the GI50 (SNB-75 CNS) was 10.4 µM and the TGI (SNB-75 CNS) was 24.7 µM. The GI50 (MDA-MB-468 breast) was 8.98 µM, the TGI (MDA-MB-468 breast) was 22.3 µM and the GI50 (LOX IMVI melanoma) was 13.5 µM. It also gave a TGI (LOX IMVI melanoma) of 26.8 µM, a GI50 (CAKI-1 renal) of 13.4 µM and a TGI (CAKI-1 renal) of 26.3 µM. The GI50 (ACHN renal) was 14.5 µM, the TGI (ACHN renal) was 27.6 µM and the GI50 (TK-10 renal) was 14 µM. It also gave a TGI (TK-10 renal) of 27.3 µM, a GI50 (A498 renal) of 14.6 µM and a TGI (A498 renal) of 28.1 µM. For the same compound, the GI50 (HCT-15 colon) was 15.2 µM, the TGI (HCT-15 colon) was 28.8 µM and the GI50 (SR leukemia) was 13.7 µM. The TGI (SR leukemia) was 29.7 µM, the GI50 (IGROV1 ovarian) was 14.3 µM and the TGI (IGROV1 ovarian) was 28.2 µM. For the same compound, the GI50 (SK-OV-3 ovarian) was 14.3 µM, the TGI (SK-OV-3 ovarian) was 27.7 µM and the GI50 (UACC-62 melanoma) was 15.1 µM. It also gave a TGI (UACC-62 melanoma) of 28.7 µM, a GI50 (RPMI-8226 leukemia) of 18.6 µM and a TGI (RPMI-8226 leukemia) of 43.4 µM. The GI50 (COLO 205 colon) was 15.6 µM, the TGI (COLO 205 colon) was 29.3 µM and the GI50 (MALME-3M melanoma) was 14.7 µM. For the same compound, the TGI (MALME-3M melanoma) was 29.7 µM, the GI50 (SK-MEL-5 melanoma) was 15.8 µM and the TGI (SK-MEL-5 melanoma) was 29.2 µM. For the same compound, the GI50 (OVCAR-3 ovarian) was 14.2 µM, the TGI (OVCAR-3 ovarian) was 29.9 µM and the GI50 (SK-MEL-28 melanoma) was 16.2 µM. The TGI (SK-MEL-28 melanoma) was 29.9 µM, the GI50 (UACC-257 melanoma) was 15.7 µM and the TGI (UACC-257 melanoma) was 30.6 µM. For the same compound, the GI50 (HCC-2998 colon) was 13.4 µM, the TGI (HCC-2998 colon) was 26.9 µM and the GI50 (MDA-MB-435) was 14.5 µM. For the same compound, the TGI (MDA-MB-435) was 28.2 µM, the GI50 (SNB-19 CNS) was 15.6 µM and the TGI (SNB-19 CNS) was 29.2 µM. For the same compound, the GI50 (K-562 leukemia) was 13 µM, the TGI (K-562 leukemia) was 34.2 µM and the GI50 (MOLT-4 leukemia) was 12.6 µM. The TGI (MOLT-4 leukemia) was 29.6 µM.

Source: PubChem BioAssay (NCI)
